Where two headings read alike, the source gives them in different places.
Biological target: Full-length human SAMHD1 (Homo sapiens, UniProt Q9Y3Z3)
Test: Enzyme-coupled malachite green
Type: biochemical
Conditions: for SAMHD1 inhibition (in words): MG assay dose-response curves; for Hill slope h: variable Hill slope fit (eq 2)

Sequence of Full-length human SAMHD1 (Q9Y3Z3 whole entry): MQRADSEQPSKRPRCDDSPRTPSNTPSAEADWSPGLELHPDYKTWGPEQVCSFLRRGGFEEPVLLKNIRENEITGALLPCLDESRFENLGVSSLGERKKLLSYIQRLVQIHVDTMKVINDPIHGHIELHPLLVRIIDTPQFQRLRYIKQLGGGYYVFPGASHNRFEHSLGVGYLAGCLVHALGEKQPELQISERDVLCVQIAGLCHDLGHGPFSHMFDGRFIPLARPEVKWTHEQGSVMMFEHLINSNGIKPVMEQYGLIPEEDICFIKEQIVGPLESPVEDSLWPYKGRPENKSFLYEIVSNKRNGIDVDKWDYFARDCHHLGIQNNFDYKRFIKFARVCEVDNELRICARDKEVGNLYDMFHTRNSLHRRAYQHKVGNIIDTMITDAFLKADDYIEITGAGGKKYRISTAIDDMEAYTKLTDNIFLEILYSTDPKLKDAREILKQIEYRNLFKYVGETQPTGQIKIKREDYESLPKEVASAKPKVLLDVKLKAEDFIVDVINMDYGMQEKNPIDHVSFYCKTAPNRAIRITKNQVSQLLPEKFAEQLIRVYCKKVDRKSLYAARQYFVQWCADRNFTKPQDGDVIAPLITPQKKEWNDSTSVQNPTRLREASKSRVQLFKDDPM

Row | Compound | SAMHD1 inhibition (in words) | other results
1 | Cc1cn([C@H]2C[C@H](O)[C@@H](CO)O2)c(=O)[nH]c1=O [dThy, deoxythymidine] | only dGuo showed significant inhibition | –
2 | O=c1ccn([C@H]2C[C@H](O)[C@@H](CO)O2)c(=O)[nH]1 [dUrd, deoxyuridine] | only dGuo showed significant inhibition | –
3 | CC(=O)OCC1=C(C(=O)O)N2C(=O)[C@@H](NC(=O)CCC[C@@H](N)C(=O)O)[C@H]2SC1 [Ceph C, cephalosporin C] | weakly inhibitory | –
4 | Nc1nc2c(ncn2[C@@H]2O[C@H](CO)[C@@H](O)[C@H]2O)c(=O)[nH]1 [rGuo] | significantly weaker inhibition | –
5 | O=c1[nH]cnc2c1ncn2[C@H]1C[C@H](O)[C@@H](CO)O1 [dIno] | significantly less inhibitory | –
6 | [Cl-].[Cl-].[Zn+2] [Zn^2+] | – | Hill slope h (MG assay dose-response): 1.2 ± 0.1; IC50 (MG assay dose-response, 0.5 μM SAMHD1, 5 μM PPase, 0.1 mM dGTP, 5 mM MgCl2): 2.1 ± 0.2 µM; inhibition after addition of EDTA (approximately stoichiometric amounts of EDTA added): completely rescued
7 | Nc1nc2c(ncn2[C@H]2CC[C@@H](CO)O2)c(=O)[nH]1 [ddGuo] | significantly weaker inhibition | –
8 | CC(=O)OCC1=C(C(=O)O)N2C(=O)[C@@H](NC(=O)CCC[C@@H](N)C(=O)O)[C@H]2SC1 [CC-Zn, cephalosporin C] | – | Hill slope h (MG assay dose-response): 1.4 ± 0.1; fold more potent inhibitor (Zn2+ salt vs sodium salt of Ceph C) (ratio of IC50 values of the two salt forms): 200 fold
9 | Nc1nc2c(ncn2[C@H]2C[C@H](O)[C@@H](CO)O2)c(=O)[nH]1 [dGuo, deoxyguanosine] | significant inhibition | IC50: 488 ± 50 µM
10 | Nc1ccn([C@H]2C[C@H](O)[C@@H](CO)O2)c(=O)n1 [dCyt, deoxycytosine] | only dGuo showed significant inhibition | –
11 | Nc1ncnc2c1ncn2[C@H]1C[C@H](O)[C@@H](CO)O1 [dAdo, deoxyadenosine] | only dGuo showed significant inhibition | –
